Test results taken from the supplement of paper PMC4932681.

Experiments:
BT-474 Tam2 [1] = assay: relative IC50 (midpoint of fitted logistic curve, plateau may be below 50% inhibition; CellTiter-Glo viability); higher = less potent; details: 4-OH-tamoxifen in medium 1 µM; 72 h
Outline: (§1)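 Drug sensitivity score, relative IC50 as the curve midpoint, and top-dose inhibition were derived from logistic dose–response fits in the Breeze pipeline. These fits used CellTiter-Glo viability, read on a PHERAstar and normalised to vehicle-only and positive controls. Breast cancer cell lines and resistant derivatives had been incubated for 72 h at 37 °C in 384-well plates holding library drugs at five concentrations spanning a 10 000-fold range. Resistant lines were grown in medium with 1 μM of the selecting drug.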

BT-474 [2] = assay: as above; details: 72 h
Outline: as §1

ZR-75-1 [3] = assay: as above; details: 72 h
Outline: as §1

MCF-7 [4] = assay: as above; details: 72 h
Outline: as §1

T-47D Tam1 [5] = assay: as above; details: 4-OH-tamoxifen in medium 1 µM; 72 h
Outline: as §1

T-47D Tam2 [6] = assay: as above; details: 4-OH-tamoxifen in medium 1 µM; 72 h
Outline: as §1

T-47D [7] = assay: as above; details: 72 h
Outline: as §1

MCF-7 Tam1 [8] = assay: as above; details: 4-OH-tamoxifen in medium 1 µM; 72 h
Outline: as §1

BT-474 Tam1 [9] = assay: as above; details: 4-OH-tamoxifen in medium 1 µM; 72 h
Outline: as §1

BT-474 Tam2 [10] = assay: drug sensitivity score (DSS) (DSS (dimensionless)); higher = more sensitive; extreme values may be limits of the assay; details: 4-OH-tamoxifen in medium 1 µM; 72 h
Outline: as §1

BT-474 [11] = assay: as above; details: 72 h
Outline: as §1

ZR-75-1 Tam1 [12] = assay: as above; details: 4-OH-tamoxifen in medium 1 µM; 72 h
Outline: as §1

ZR-75-1 [13] = assay: as above; details: 72 h
Outline: as §1

MCF-7 [14] = assay: as above; details: 72 h
Outline: as §1

ZR-75-1 Tam2 [15] = assay: as above; details: 4-OH-tamoxifen in medium 1 µM; 72 h
Outline: as §1

T-47D Tam1 [16] = assay: as above; details: 4-OH-tamoxifen in medium 1 µM; 72 h
Outline: as §1

T-47D Tam2 [17] = assay: as above; details: 4-OH-tamoxifen in medium 1 µM; 72 h
Outline: as §1

T-47D [18] = assay: as above; details: 72 h
Outline: as §1

MCF-7 Tam1 [19] = assay: as above; details: 4-OH-tamoxifen in medium 1 µM; 72 h
Outline: as §1

BT-474 Tam1 [20] = assay: as above; details: 4-OH-tamoxifen in medium 1 µM; 72 h
Outline: as §1

ZR-75-1 Tam1 [21] = assay: relative IC50 (midpoint of fitted logistic curve, plateau may be below 50% inhibition; CellTiter-Glo viability); higher = less potent; details: 4-OH-tamoxifen in medium 1 µM; 72 h
Outline: as §1

ZR-75-1 Tam2 [22] = assay: as above; details: 4-OH-tamoxifen in medium 1 µM; 72 h
Outline: as §1

SMILES | relative IC50 (BT-474 Tam2 [1]) [µM] | relative IC50 (BT-474 [2]; 4-OH-tamoxifen in medium 1 µM) [µM] | relative IC50 (MCF-7 [4]; 4-OH-tamoxifen in medium 0 µM) [µM] | relative IC50 (MCF-7 [4]; 4-OH-tamoxifen in medium 1 µM) [µM] | relative IC50 (T-47D Tam1 [5]) [nM] | relative IC50 (T-47D Tam2 [6]) [µM] | relative IC50 (T-47D [7]; 4-OH-tamoxifen in medium 1 µM) [µM] | relative IC50 (MCF-7 Tam1 [8]) [µM] | relative IC50 (BT-474 Tam1 [9]) [µM] | relative IC50 (BT-474 [2]; 4-OH-tamoxifen in medium 0 µM) [µM] | relative IC50 (T-47D [7]; 4-OH-tamoxifen in medium 0 µM) [µM] | relative IC50 (ZR-75-1 [3]; 4-OH-tamoxifen in medium 0 µM) [µM] | relative IC50 (ZR-75-1 [3]; 4-OH-tamoxifen in medium 1 µM) [µM] | drug sensitivity score (BT-474 Tam2 [10]) | drug sensitivity score (BT-474 [11]; 4-OH-tamoxifen in medium 0 µM) | drug sensitivity score (BT-474 [11]; 4-OH-tamoxifen in medium 1 µM) | drug sensitivity score (ZR-75-1 Tam1 [12]) | drug sensitivity score (ZR-75-1 [13]; 4-OH-tamoxifen in medium 0 µM) | drug sensitivity score (ZR-75-1 [13]; 4-OH-tamoxifen in medium 1 µM) | drug sensitivity score (MCF-7 [14]; 4-OH-tamoxifen in medium 0 µM) | drug sensitivity score (MCF-7 [14]; 4-OH-tamoxifen in medium 1 µM) | drug sensitivity score (ZR-75-1 Tam2 [15]) | drug sensitivity score (T-47D Tam1 [16]) | drug sensitivity score (T-47D Tam2 [17]) | drug sensitivity score (T-47D [18]; 4-OH-tamoxifen in medium 0 µM) | drug sensitivity score (T-47D [18]; 4-OH-tamoxifen in medium 1 µM) | drug sensitivity score (MCF-7 Tam1 [19]) | drug sensitivity score (BT-474 Tam1 [20]) | relative IC50 (ZR-75-1 Tam1 [21]) [µM] | relative IC50 (ZR-75-1 Tam2 [22]) [µM]
CC/C(=C(\c1ccc(O)cc1)c1ccc(OCCN(C)C)cc1)c1ccccc1 [4-hydroxytamoxifen] | 3.57 | 3.35 | 2.87 | 3.34 | 2880 | 3.36 | 3.9 | 3.94 | 1.59 |  |  | > 10 | 3.2 | 4.79 | 0.905 | 5.15 | 0.263 | 0 | 1.5 | 3.05 | 4.41 | 1.3 | 2.07 | 4.19 | 0.306 | 2.56 | 1.87 | 9.04 |  | 
Cc1cc(Nc2nc(N[C@@H](C)c3ncc(F)cn3)ncc2Cl)[nH]n1 [AZD1480] | > 1 | > 1 |  | > 1 |  | > 1 | > 1 | > 1 | > 1 | > 1 | > 1 | > 1 | > 1 | 0 | 0 | 0 | 0 | 0 | 0 | 0.0046 | 0 | 0 | 2.6 | 0 | 0 | 0 | 0 | 0 | > 1 | > 1
CCC1(c2ccc(N)cc2)CCC(=O)NC1=O (stereo not drawn) [Aminoglutethimide] | > 10 |  | > 10 |  |  | > 10 |  | > 10 | > 10 | > 10 | > 10 |  | > 10 | 0 | 0 | 0.6 | 0 | 0 | 0 | 0 | 5.49 | 0 | 0 | 0 | 0 | 0.781 | 0 | 0 | > 10 | > 10

Now from value to compound, other results behind:

relative IC50 (BT-474 Tam2 [1]) [µM] | relative IC50 (BT-474 [2]; 4-OH-tamoxifen in medium 1 µM) [µM] | relative IC50 (MCF-7 [4]; 4-OH-tamoxifen in medium 0 µM) [µM] | relative IC50 (MCF-7 [4]; 4-OH-tamoxifen in medium 1 µM) [µM] | relative IC50 (T-47D Tam1 [5]) [nM] | relative IC50 (T-47D Tam2 [6]) [µM] | relative IC50 (T-47D [7]; 4-OH-tamoxifen in medium 1 µM) [µM] | relative IC50 (MCF-7 Tam1 [8]) [µM] | relative IC50 (BT-474 Tam1 [9]) [µM] | relative IC50 (BT-474 [2]; 4-OH-tamoxifen in medium 0 µM) [µM] | relative IC50 (T-47D [7]; 4-OH-tamoxifen in medium 0 µM) [µM] | SMILES | relative IC50 (ZR-75-1 [3]; 4-OH-tamoxifen in medium 0 µM) [µM] | relative IC50 (ZR-75-1 [3]; 4-OH-tamoxifen in medium 1 µM) [µM] | drug sensitivity score (BT-474 Tam2 [10]) | drug sensitivity score (BT-474 [11]; 4-OH-tamoxifen in medium 0 µM) | drug sensitivity score (BT-474 [11]; 4-OH-tamoxifen in medium 1 µM) | drug sensitivity score (ZR-75-1 Tam1 [12]) | drug sensitivity score (ZR-75-1 [13]; 4-OH-tamoxifen in medium 0 µM) | drug sensitivity score (ZR-75-1 [13]; 4-OH-tamoxifen in medium 1 µM) | drug sensitivity score (MCF-7 [14]; 4-OH-tamoxifen in medium 0 µM) | drug sensitivity score (MCF-7 [14]; 4-OH-tamoxifen in medium 1 µM) | drug sensitivity score (ZR-75-1 Tam2 [15]) | drug sensitivity score (T-47D Tam1 [16]) | drug sensitivity score (T-47D Tam2 [17]) | drug sensitivity score (T-47D [18]; 4-OH-tamoxifen in medium 0 µM) | drug sensitivity score (T-47D [18]; 4-OH-tamoxifen in medium 1 µM) | drug sensitivity score (MCF-7 Tam1 [19]) | drug sensitivity score (BT-474 Tam1 [20]) | relative IC50 (ZR-75-1 Tam1 [21]) [µM] | relative IC50 (ZR-75-1 Tam2 [22]) [µM]
> 10 | > 10 | > 10 | > 10 | > 10000 | > 10 | > 10 | > 10 | > 10 | > 10 | > 10 | CCCCCOC(=O)Nc1nc(=O)n([C@@H]2O[C@H](C)[C@@H](O)[C@H]2O)cc1F [Capecitabine] |  | > 10 | 0 | 0 | 0 | 0.129 | 1.86 | 0 | 0 | 0 | 0.0192 | 0 | 0 | 0 | 0 | 0 | 0 |  | 
> 10 | > 10 | 0.435 |  | 580 | > 10 | > 10 | > 10 | > 10 | > 10 | 1.94 | Nc1ccn([C@@H]2O[C@H](CO)[C@@H](O)[C@@H]2O)c(=O)n1 [Cytarabine] | 1.5 |  | 0 | 0 | 0 | 1.96 | 3.25 | 0.265 | 4.84 | 1.56 | 2.46 | 4.13 | 0 | 2.75 | 0 | 0 | 0 |  | 
> 10 |  | > 10 |  | 667 | > 10 |  | > 10 |  | > 10 | 0.605 | COc1cc([C@@H]2c3cc4c(cc3[C@@H](O[C@@H]3O[C@@H]5CO[C@@H](C)O[C@H]5[C@H](O)[C@H]3O)[C@H]3COC(=O)[C@H]23)OCO4)cc(OC)c1O [Etoposide] | 0.612 |  | 0 | 0 | 1.71 | 1.42 | 3.42 | 0.761 | 0 | 0.239 | 1.13 | 5.76 | 0 | 6.74 | 0.625 | 0 | 0.0698 |  | 
> 10 | > 10 | > 10 |  |  | > 10 | > 10 | > 10 | > 10 | > 10 | > 10 | Nc1nc(F)nc2c1ncn2[C@@H]1O[C@H](CO)[C@@H](O)[C@@H]1O [Fludarabine] | > 10 | > 10 | 0 | 0 | 0 | 0 | 0 | 0 | 0 | 1.23 | 0 | 2.13 | 0 | 0 | 0 | 0 | 0 | > 10 | > 10
